# Source: US20250072423A1, “THIOPHENE ACETIC ACID FOR PLANT GROWTH REGULATION” (priority 2023, published 2025)
# How the values were obtained:
# AtARF19, AT1G19220 = experiment: qRT-PCR of early auxin-responsive gene AtARF19 (Experiment 9); format: in vivo, A. thaliana; details: 5 and 10 μM TAA, both time points
# Method: (§1) To analyze TAA responsive genes in Arabidopsis, WT Arabidopsis seeds were germinated as described and 14-day-old uniform-looking seedlings were initially acclimatized in liquid germination medium for 2 hours before transferring to medium containing different concentrations of TAA (5 and 10 μM). Seedlings in media supplemented with DMSO were used as control. Five random seedlings were selected and considered as one sample and three samples from both control and treatments were flash frozen in liquid nitrogen and total RNA was isolated using a TRIzol reagent (ThermoFisher Scientific, Cat #15596026).
# (§2) Expression levels of seven previously reported early auxin-responsive genes were verified by qRT-PCR (quantitative reverse transcription polymerase chain reaction). RNA reverse transcription was performed using QuantiTect Reverse Transcription Kit (Qiagen). Three biological replicates and three technical replicates were used for all qRT-PCRs. Arabidopsis actin gene (AT3G18780) was used as internal reference.
# AtIAA29 (AT4G32280) = experiment: qRT-PCR of early auxin-responsive gene AtIAA29 (Experiment 9); format: in vivo, A. thaliana; details: 5 and 10 μM TAA
# Method: as §1, §2
# [1] = test system: auxin-response promoter DR5
# Method: Artificial auxin-response promoter DR5 that contains a minimal 35S promoter fused to 9 repeats of an AuxRE with strict auxin specificity and responsive to only active auxins is used to indirectly visualize auxin in plants.
# To further analyze the ability of TAA to induce an auxin response in tobacco, seedlings from transgenic tobacco plants expressing reporter gene RFP (red fluorescent protein gene) under the control of DR5 promoter were treated with different concentrations of TAA and compared the pattern of RFP fluorescence to that generated by equimolar concentration of other reported auxins over time.
# Induction of an auxin response by TAA was analyzed by detecting the expression of fluorescent reporter gene under the control of auxin response elements (AuxRE) in transgenic tobacco. Plant transformation vector DR5rev::erRFP carrying DsRED reporter gene under an auxin-responsive promoter was obtained from addgene (www.addgene.org, plasmid ID. 61011). The plasmid was introduced into the Agrobacterium strain LBA4404, using freeze-thaw transformation. Transgenic plants were selected on a medium containing 25 mg/L hygromycin and then verified by PCR (polymerase chain reaction). The rooted plants were grown in soil and PCR positive tobacco seedlings were used in further experiments.
# AtIAA19 (AT3G15540) = experiment: qRT-PCR of early auxin-responsive gene AtIAA19 (Experiment 9); format: in vivo, A. thaliana; details: 5 and 10 μM TAA
# Method: as §1, §2
# [2] = test system: tomato cotyledon explants; experiment: Shoot regeneration from tomato cotyledon explants with 1 mg/L BAP (Experiment 3); format: cell-based, tomato cultivar Roma VF
# [3] = test system: tomato cotyledon explants; experiment: Root regeneration from tomato cotyledon explants in vitro (Experiment 2); format: cell-based, tomato cultivar Roma VF; details: 0.05 and 0.1 mg/L
# Method: Seeds of tomato cultivar Roma VF were sterilized by treating with 75% ethanol for 30 seconds at room temperature and washed with sterile water for five times. The seeds were then treated with 15% sodium hypochlorite for 10 minutes and washed five times in sterile water. The sterilized seeds were germinated on half-strength Murashige and Skoog (MS) medium in vitro. Cotyledons from 10-day old seedlings before first true leaves emerged were used as starting explants in all the experiments. The base and tip of the cotyledons were excised and the explants were transferred with the abaxial surface in contact with the culture medium. The basic culture medium consists of MS medium with vitamins supplemented with 30 g/L sucrose and gelled with 0.8% agar, and the pH of the medium was adjusted to 5.8±0.2. Plates were maintained at a light cycle of 16/8 hours day/night, temperature of 26/24° C. day/night, and relative humidity of 70% and subcultured on the same media after 14 days. Observations were made on 7, 14, 21 and 28 days of growth. All experiments were conducted with at least three replicates of 10 explants each.
# In order to analyze the effect of TAA on root regeneration, the basic media were supplemented with different concentrations of TAA (0.05 and 0.1 mg/L) and further compared with individual effect of widely used auxins (IAA, NAA, IBA, 2,4 D) at similar concentrations.
# AtLBD29, AT3G58190 = experiment: qRT-PCR of early auxin-responsive gene AtLBD29 (Experiment 9); format: in vivo, A. thaliana; details: 5 and 10 μM TAA, both time points
# Method: as §1, §2
# AtGH3.3 (AT2G23170) = experiment: qRT-PCR of early auxin-responsive gene AtGH3.3 (Experiment 9); format: in vivo, A. thaliana; details: 5 and 10 μM TAA, concentration and time-dependent
# Method: as §1, §2
# WT A. thaliana seedlings = experiment: Root gravitropism of WT Arabidopsis seedlings (Experiment 8); format: in vivo
# Method: (§3) Arabidopsis Columbia-0 wild type (WT) was used for assessing the effect of TAA on root growth and its effects on the expression of auxin-responsive genes. Seeds of A. thaliana were surface sterilized by suspending in 70% ethanol for 1 minute, followed by treatment with 10% bleach for 20 minutes. After thorough washing with sterile distilled water, the sterilized seeds were plated onto germination medium (half-strength Murashige and Skoog basal medium with vitamins (1/2 MS) medium supplemented with 1% sucrose and 0.7% plant agar) for germination. Germination was initiated by incubating the seeds in darkness at 5° C. for 2 days, followed by transfer to a light environment at 22° C. with a photoperiod of 16-h light/8-h dark for further growth. Stock solutions of TAA were prepared in DMSO (dimethyl sulfoxide). In control treatments, DMSO was used in equal amounts as present in the greatest concentration of TAA tested.
# To analyze the effect of TAA on gravitropism, WT A. thaliana seeds were cultured on 1/2 MS medium for 8 days. Uniform seedlings were then selected and vertically grown in germination medium supplemented with different concentrations of TAA (1, 2, 5, 10, and 25 μM) for 24 h. Seedlings grown on media supplemented with DMSO were used as control. The plates were then rotated clockwise 90° to make the root parallel to the ground. The seedlings were allowed to grow for 73 h and the plates were photographed at different intervals. Image J software was used to measure the curvature of 16 plants each in the control and treatment groups.
# WT Arabidopsis seedlings = experiment: Root growth of WT Arabidopsis seedlings in the presence of NPA (Experiment 7); format: in vivo, A. thaliana; details: 5 μM TAA added, all NPA concentrations analyzed (0.5-8 μM)
# Method: as §3
# To analyze the effect of TAA on root growth in the presence of NPA (N-1-naphthylphthalamic acid), WT Arabidopsis seedlings were germinated as described and uniform-looking 8-day-old seedlings were transferred to germination medium supplemented with different concentrations of TAA (5 and 10 μM) and different concentrations of NPA (0, 0.5, 1, 2, 4, and 8 μM). The seedlings were allowed to grow for 6 days and the plates were photographed at 24 h intervals. […]
smiles,measurement,setting,value
O=C(O)Cc1ccsc1 [TAA],AtARF19 expression,"AtARF19, AT1G19220",upregulation
same,AtIAA29 expression,AtIAA29 (AT4G32280),induction
same,RFP after short-term treatment and withdrawal,[1]; 48 h after TAA withdrawal,detectable in roots even after 48 h of TAA withdrawal
same,time to auxin reporter gene expression in primary root tips,[1]; all concentrations of TAA analyzed,≤ 30 min
same,spread of RFP fluorescence,[1]; by 48 h of treatment,RFP signal was observable in secondary roots
same,RFP signal at the root tip with increasing TAA concentrations,[1]; dose dependence,gradually increased
same,AtIAA19 expression,AtIAA19 (AT3G15540),induction
same,number of shoots (shoot regeneration),[2]; 10.0 mg/L with 1 mg/L BAP,maximum number of shoots
same,start of shoot formation,"[2]; 0.05, 0.1, 0.5, 1.0, 2.0 and 10.0 mg/L with 1 mg/L BAP",~14 days
same,shoot organogenesis,"[2]; 0.05, 0.1, 0.5, 1.0, 2.0 and 10.0 mg/L with 1 mg/L BAP, by Day 28",many explants had well defined shoots
same,root growth / root regeneration compared with known auxins,[3]; after Day 7 (FIG. 3),performs on par with most known auxins
same,organogenesis from tomato cotyledon explants (root formation),"[3]; no other hormones, within 7 days",rapid root formation
same,AtLBD29 expression,"AtLBD29, AT3G58190",upregulation
same,AtGH3.3 upregulation,AtGH3.3 (AT2G23170),over 70 fold
same,growth angle of primary roots,WT A. thaliana seedlings; 50 h after treatment (FIG. 8b),~90 °
same,growth angle of primary roots,"WT A. thaliana seedlings; higher concentrations (5, 10 and 25 μM)",did not show a marked change in growth angle
same,rate of gravitropic response,"WT A. thaliana seedlings; lower concentrations (1 and 2 μM), plates rotated 90°",enhanced the rate of gravitropic response
same,number of root hairs,WT Arabidopsis seedlings,increased the number of root hairs
